Assay results reported in patent publication US10472352B2, “Rac inhibitors” (Geneyus LLC, priority 2017, dated 2019).
Like-named read-outs stand apart in the source and are kept apart here.

Tested on: BT474 breast cancer cells
Experiment: BT474 Four (4) Day Cell Viability Assay
Assay type: cell-based
Conditions: Homo sapiens, BT-474, 96 h, BT474, 4 days, read-out: cellular viability; for viability at 7.5 µM: 32661 7.5 μM; for viability at 10 µM: 32661 10 μM
Procedure: BT474 breast cancer cells that are Estrogen Receptor Positive and HER2+ were grown in 5% cFBS. 5,000 cells were seeded into each well of a 96-well plate and treated with escalating doses of lapatinib, fulvestrant, and 32661.

[1] = fulvestrant 0.0 nM, lapatinib 0.0 nM
[2] = fulvestrant 0.0 nM, lapatinib 6.9 nM
[3] = fulvestrant 0.0 nM, lapatinib 20.6 nM
[4] = fulvestrant 0.0 nM, lapatinib 61.7 nM
[5] = fulvestrant 0.0 nM, lapatinib 185.2 nM
[6] = fulvestrant 0.0 nM, lapatinib 555.6 nM
[7] = fulvestrant 0.0 nM, lapatinib 1666.7 nM
[8] = fulvestrant 0.0 nM, lapatinib 3333.0 nM
[9] = fulvestrant 6.9 nM, lapatinib 0.0 nM
[10] = fulvestrant 6.9 nM, lapatinib 6.9 nM
[11] = fulvestrant 6.9 nM, lapatinib 20.6 nM
[12] = fulvestrant 6.9 nM, lapatinib 61.7 nM
[13] = fulvestrant 6.9 nM, lapatinib 185.2 nM
[14] = fulvestrant 6.9 nM, lapatinib 555.6 nM
[15] = fulvestrant 6.9 nM, lapatinib 1666.7 nM
[16] = fulvestrant 6.9 nM, lapatinib 3333.0 nM
[17] = fulvestrant 20.6 nM, lapatinib 0.0 nM
[18] = fulvestrant 20.6 nM, lapatinib 6.9 nM
[19] = fulvestrant 20.6 nM, lapatinib 20.6 nM
[20] = fulvestrant 20.6 nM, lapatinib 61.7 nM
[21] = fulvestrant 20.6 nM, lapatinib 185.2 nM
[22] = fulvestrant 20.6 nM, lapatinib 555.6 nM
[23] = fulvestrant 20.6 nM, lapatinib 1666.7 nM
[24] = fulvestrant 20.6 nM, lapatinib 3333.0 nM
[25] = fulvestrant 61.7 nM, lapatinib 0.0 nM
[26] = fulvestrant 61.7 nM, lapatinib 6.9 nM
[27] = fulvestrant 61.7 nM, lapatinib 20.6 nM
[28] = fulvestrant 61.7 nM, lapatinib 61.7 nM
[29] = fulvestrant 61.7 nM, lapatinib 185.2 nM
[30] = fulvestrant 61.7 nM, lapatinib 555.6 nM
[31] = fulvestrant 61.7 nM, lapatinib 1666.7 nM
[32] = fulvestrant 61.7 nM, lapatinib 3333.0 nM
[33] = fulvestrant 185.2 nM, lapatinib 0.0 nM
[34] = fulvestrant 185.2 nM, lapatinib 6.9 nM
[35] = fulvestrant 185.2 nM, lapatinib 20.6 nM
[36] = fulvestrant 185.2 nM, lapatinib 61.7 nM
[37] = fulvestrant 185.2 nM, lapatinib 185.2 nM
[38] = fulvestrant 185.2 nM, lapatinib 555.6 nM
[39] = fulvestrant 185.2 nM, lapatinib 1666.7 nM
[40] = fulvestrant 185.2 nM, lapatinib 3333.0 nM
[41] = fulvestrant 555.6 nM, lapatinib 0.0 nM
[42] = fulvestrant 555.6 nM, lapatinib 6.9 nM
[43] = fulvestrant 555.6 nM, lapatinib 20.6 nM
[44] = fulvestrant 555.6 nM, lapatinib 61.7 nM
[45] = fulvestrant 555.6 nM, lapatinib 185.2 nM
[46] = fulvestrant 555.6 nM, lapatinib 555.6 nM
[47] = fulvestrant 555.6 nM, lapatinib 1666.7 nM
[48] = fulvestrant 555.6 nM, lapatinib 3333.0 nM
[49] = fulvestrant 1666.7 nM, lapatinib 0.0 nM
[50] = fulvestrant 1666.7 nM, lapatinib 6.9 nM
[51] = fulvestrant 1666.7 nM, lapatinib 20.6 nM
[52] = fulvestrant 1666.7 nM, lapatinib 61.7 nM
[53] = fulvestrant 1666.7 nM, lapatinib 185.2 nM
[54] = fulvestrant 1666.7 nM, lapatinib 555.6 nM
[55] = fulvestrant 1666.7 nM, lapatinib 1666.7 nM
[56] = fulvestrant 1666.7 nM, lapatinib 3333.0 nM
[57] = fulvestrant 3333.0 nM, lapatinib 0.0 nM
[58] = fulvestrant 3333.0 nM, lapatinib 6.9 nM
[59] = fulvestrant 3333.0 nM, lapatinib 20.6 nM
[60] = fulvestrant 3333.0 nM, lapatinib 61.7 nM
[61] = fulvestrant 3333.0 nM, lapatinib 185.2 nM
[62] = fulvestrant 3333.0 nM, lapatinib 555.6 nM
[63] = fulvestrant 3333.0 nM, lapatinib 1666.7 nM
[64] = fulvestrant 3333.0 nM, lapatinib 3333.0 nM

`FC(F)(F)c1ccc2c(SCCCCCCn3cnc(CN4CCOCC4)c3)ccnc2c1` [Compound 0032661, 4-[[1-[6-[[7-(trifluoromethyl)-4-quinolyl]sulfanyl]hexyl]imidazol-4-yl]methyl]morpholine] was tested, and the viability at 5 µM (32661 5 μM, fulvestrant 3333.0 nM, lapatinib 3333.0 nM) was 1%, the viability at 7.5 µM [1] was 84% and the viability at 7.5 µM [2] was 76%. The viability at 7.5 µM [3] was 74%, the viability at 7.5 µM [4] was 65% and the viability at 7.5 µM [5] was 50%. For the same compound, the viability at 7.5 µM [6] was 30%, the viability at 7.5 µM [7] was 14% and the viability at 7.5 µM [8] was 12%. For the same compound, the viability at 7.5 µM [9] was 81%, the viability at 7.5 µM [10] was 72% and the viability at 7.5 µM [11] was 71%. It also gave a viability at 7.5 µM [12] of 64%, a viability at 7.5 µM [13] of 52% and a viability at 7.5 µM [14] of 27%. For the same compound, the viability at 7.5 µM [15] was 12%, the viability at 7.5 µM [16] was 9% and the viability at 7.5 µM [17] was 75%. For the same compound, the viability at 7.5 µM [18] was 73%, the viability at 7.5 µM [19] was 67% and the viability at 7.5 µM [20] was 62%. The viability at 7.5 µM [21] was 50%, the viability at 7.5 µM [22] was 23% and the viability at 7.5 µM [23] was 12%. For the same compound, the viability at 7.5 µM [24] was 4%, the viability at 7.5 µM [25] was 76% and the viability at 7.5 µM [26] was 66%. For the same compound, the viability at 7.5 µM [27] was 61%, the viability at 7.5 µM [28] was 58% and the viability at 7.5 µM [29] was 52%. The viability at 7.5 µM [30] was 24%, the viability at 7.5 µM [31] was 12% and the viability at 7.5 µM [32] was 4%. For the same compound, the viability at 7.5 µM [33] was 74%, the viability at 7.5 µM [34] was 64% and the viability at 7.5 µM [35] was 61%. For the same compound, the viability at 7.5 µM [36] was 54%, the viability at 7.5 µM [37] was 48% and the viability at 7.5 µM [38] was 24%. It also gave a viability at 7.5 µM [39] of 10%, a viability at 7.5 µM [40] of 5% and a viability at 7.5 µM [41] of 76%. For the same compound, the viability at 7.5 µM [42] was 59%, the viability at 7.5 µM [43] was 52% and the viability at 7.5 µM [44] was 45%. The viability at 7.5 µM [45] was 38%, the viability at 7.5 µM [46] was 19% and the viability at 7.5 µM [47] was 3%. It also gave a viability at 7.5 µM [48] of 1%, a viability at 7.5 µM [49] of 69% and a viability at 7.5 µM [50] of 35%. For the same compound, the viability at 7.5 µM [51] was 28%, the viability at 7.5 µM [52] was 25% and the viability at 7.5 µM [53] was 21%. For the same compound, the viability at 7.5 µM [54] was 12%, the viability at 7.5 µM [55] was 2% and the viability at 7.5 µM [56] was 0%. For the same compound, the viability at 7.5 µM [57] was 49%, the viability at 7.5 µM [58] was 16% and the viability at 7.5 µM [59] was 13%. The viability at 7.5 µM [60] was 11%, the viability at 7.5 µM [61] was 7% and the viability at 7.5 µM [62] was 2%. For the same compound, the viability at 7.5 µM [63] was 3%, the viability at 7.5 µM [64] was 1% and the viability at 10 µM [1] was 90%. For the same compound, the viability at 10 µM [2] was 42%, the viability at 10 µM [3] was 38% and the viability at 10 µM [4] was 35%. It also gave a viability at 10 µM [5] of 28%, a viability at 10 µM [6] of 28% and a viability at 10 µM [7] of 23%. The viability at 10 µM [8] was 5%, the viability at 10 µM [9] was 90% and the viability at 10 µM [10] was 38%. For the same compound, the viability at 10 µM [11] was 35%, the viability at 10 µM [12] was 33% and the viability at 10 µM [13] was 27%. For the same compound, the viability at 10 µM [14] was 24%, the viability at 10 µM [15] was 20% and the viability at 10 µM [16] was 3%. For the same compound, the viability at 10 µM [17] was 89%, the viability at 10 µM [18] was 36% and the viability at 10 µM [19] was 36%. For the same compound, the viability at 10 µM [20] was 33%, the viability at 10 µM [21] was 28% and the viability at 10 µM [22] was 23%. It also gave a viability at 10 µM [23] of 20%, a viability at 10 µM [24] of 3% and a viability at 10 µM [25] of 86%. The viability at 10 µM [26] was 37%, the viability at 10 µM [27] was 35% and the viability at 10 µM [28] was 33%. It also gave a viability at 10 µM [29] of 27%, a viability at 10 µM [30] of 23% and a viability at 10 µM [31] of 20%. For the same compound, the viability at 10 µM [32] was 2%, the viability at 10 µM [33] was 86% and the viability at 10 µM [34] was 33%. The viability at 10 µM [35] was 33%, the viability at 10 µM [36] was 31% and the viability at 10 µM [37] was 24%. The viability at 10 µM [38] was 23%, the viability at 10 µM [39] was 18% and the viability at 10 µM [40] was 1%. The viability at 10 µM [41] was 81%, the viability at 10 µM [42] was 31% and the viability at 10 µM [43] was 29%. For the same compound, the viability at 10 µM [44] was 29%, the viability at 10 µM [45] was 24% and the viability at 10 µM [46] was 23%. The viability at 10 µM [47] was 18%, the viability at 10 µM [48] was 1% and the viability at 10 µM [49] was 78%. The viability at 10 µM [50] was 16%, the viability at 10 µM [51] was 16% and the viability at 10 µM [52] was 15%. It also gave a viability at 10 µM [53] of 16%, a viability at 10 µM [54] of 15% and a viability at 10 µM [55] of 7%. It also gave a viability at 10 µM [56] of 0%, a viability at 10 µM [57] of 55% and a viability at 10 µM [58] of 3%. For the same compound, the viability at 10 µM [59] was 3%, the viability at 10 µM [60] was 6% and the viability at 10 µM [61] was 2%. It also gave a viability at 10 µM [62] of 2%, a viability at 10 µM [63] of 1% and a viability at 10 µM [64] of 0%.
